Read-outs that look alike come from different tables or passages of the source. Numbered stars: 1 amine (or outer) side, 2 acyl side, 3 side chain; on linkers, the order of the positions; unused ones are H or OH. Side chains are listed from the residue outwards. Peptide text beside a SMILES is read from it. * marks the point of attachment. C18 diacid = O=C(O)CCCCCCCCCCCCCCCCC(=O)*; γGlu = O=C(O)[C@H](CCC(=O)[*:2])N[*:1]; C14 diacid = O=C(O)CCCCCCCCCCCCC(=O)*; AEEA = NCCOCCOCC(=O)O
Legend:
[1] = Assay (XI) Pharmacokinetic study in minipigs; format: in vivo, Göttingen minipigs; settings: i.v. administration, terminal half-life; for half-life: minipig, iv, read-out: iv PK minipig [T½] (converted)
Procedure: Buffer: • 50 mM Dinatriumphosphatdihydrat • 184 mM Propylenglycol • 58 mM Phenol • pH adjusted to 8.15 with H3PO4. In cases where pH was adjusted to 8.15 after re-suspension of analogues, 0.2 M NaOH was used. Assay (XI) Pharmacokinetic Study in Minipigs
This is done in a pharmacokinetic (PK) study, whereamong other parameters the terminal half-life and the clearance of the derivative in question is determined. Increasing the terminal half-life and decreasing the clearance means that the compound of study is eliminated slower from the body.
Male or female Göttingen minipigs were obtained from Ellegaard Göttingen Minipigs (Dalmose, Denmark) approximately 7-14 months of age and weighing from approximately 16-35 kg were used in the studies. The minipigs were housed either individually (pigs with permanent catheters) or in a group and fed restrictedly once or twice daily with SDS minipig diet (Special Diets Services, Essex, UK). In some studies two permanent central venous catheters were implanted in vena cava caudalis or cranialis in each animal after at least 2 weeks of acclimatisation. […] On each dosing occasion these pigs were instrumented with a venflon in one ear vein through which the derivatives were dosed. Blood sampling was done by venipuncture in v. jugularis or v. cava cranialis
The animals were either unfasted or fasted for approximately 18 h before dosing and from 0 to 4 h after dosing, but had ad libitum access to water during the whole period.
Intravenous injections (the volume corresponding to usually 2-3 nmol/kg, for example 0.1 ml/kg) of the compounds were given through one catheter or through the venflon, and blood was sampled at predefined time points for up till 13 days post dosing (preferably through the other catheter or by venipuncture). Blood samples (for example 0.8 ml) were collected in tubes with EDTA buffer (8 mM) (sometimes aprotinin 500 KIU/ml blood was added) and then centrifuged at 4° C. and 1942 G for 10 minutes. […] Based on these measurements, time-plasma concentration profiles for the compound of study are plotted and a so-called non-compartmental pharmacokinetic analysis of the data is performed in WinNonlin v. 5.0 or Phoenix v. 6.2 (Pharsight Inc., Mountain View, Calif., USA) or other relevant software for PK analysis. For most compounds, the terminal part of the plasma-concentration profiles will be linear when drawn in a semi-logarithmic plot, reflecting that after the initial distribution, drug is removed from the body at a constant fractional rate. The rate (lambda Z or is equal to minus the slope of the terminal part of the plot. From this rate, also the terminal half-life may be calculated, as t½=ln(2)/λz (see, e.g., Johan Gabrielsson and Daniel Weiner: Pharmacokinetics and Pharmacodynamic Data Analysis. Concepts & Applications, 3rd Ed., Swedish Pharmaceutical Press, Stockholm (2000)).
Clearance is defined as the dose (D) divided by area under the curve (AUC) on the plasmaconcentration versus time profile (Rowland, M and Tozer T N: Clinical Pharmacokinetics: Concepts and Applications, 3rd edition, 1995 Williams Wilkins)

[2] = Assay (X) Chemical stability assessment by RP-UPLC; format: physicochemical; settings: pH 8.15, 14 days at 37° C. vs 5° C., 333 μM
glucagon receptor = biological target: T1, glucagon receptor (Homo sapiens, UniProt P47871); assay: Assay (I) Glucagon activity (cAMP biosensor, FLIPR); format: cell-based
T1 construct: expressed in transfected cells
T1 sequence (P47871 26-477): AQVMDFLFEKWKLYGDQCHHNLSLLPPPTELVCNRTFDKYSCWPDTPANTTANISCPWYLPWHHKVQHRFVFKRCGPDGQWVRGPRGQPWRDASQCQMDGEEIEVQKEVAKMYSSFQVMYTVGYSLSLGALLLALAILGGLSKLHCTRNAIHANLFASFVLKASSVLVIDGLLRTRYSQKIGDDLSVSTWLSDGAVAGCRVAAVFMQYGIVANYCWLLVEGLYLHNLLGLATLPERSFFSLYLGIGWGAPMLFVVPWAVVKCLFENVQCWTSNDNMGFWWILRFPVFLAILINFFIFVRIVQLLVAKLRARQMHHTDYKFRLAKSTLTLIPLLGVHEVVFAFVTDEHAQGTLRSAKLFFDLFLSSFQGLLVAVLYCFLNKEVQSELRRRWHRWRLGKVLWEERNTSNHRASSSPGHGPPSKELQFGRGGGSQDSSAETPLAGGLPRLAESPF

half-life ([1]; in vivo) [h] | Chemical stability [Purity loss/14 days 37 C.] [2] [%] | iv PK minipig [T½] [1] [h] | SMILES | half-life ([1]; both sexes, Göttingen, plasma) [h] | EC50 (glucagon receptor) [nM]
76.4 | 5.1 |  | CC(C)C[C@H](NC(=O)[C@H](CC(=O)O)NC(=O)[C@H](CC(C)C)NC(=O)[C@H](Cc1ccc(O)cc1)NC(=O)[C@H](CCCCN)NC(=O)[C@H](CO)NC(=O)[C@H](Cc1ccc(O)cc1)NC(=O)[C@H](CC(=O)O)NC(=O)[C@H](CO)NC(=O)[C@@H](NC(=O)[C@H](Cc1ccccc1)NC(=O)[C@@H](NC(=O)CNC(=O)[C@H](CCC(N)=O)NC(=O)[C@H](CO)NC(=O)[C@@H](N)Cc1c[nH]cn1)[C@@H](C)O)[C@@H](C)O)C(=O)N[C@@H](CCCNC(=N)N)C(=O)N[C@@H](CCCNC(=N)N)C(=O)N[C@@H](C)C(=O)N[C@@H](CCC(N)=O)C(=O)N[C@@H](CC(=O)O)C(=O)N[C@@H](Cc1ccccc1)C(=O)N[C@H](C(=O)N[C@@H](CCCCNC(=O)CC[C@H](NC(=O)CC[C@H](NC(=O)COCCOCCNC(=O)COCCOCCNC(=O)CC[C@H](NC(=O)CCCCCCCCCCCCCCCCC(=O)O)C(=O)O)C(=O)O)C(=O)O)C(=O)N[C@@H](Cc1c[nH]c2ccccc12)C(=O)N[C@@H](CC(C)C)C(=O)N[C@@H](CC(C)C)C(=O)N[C@@H](CO)C(=O)N[C@H](C(=O)O)[C@@H](C)O)C(C)C [Example 13, N^ε24-[(4S)-4-carboxy-4-[[(4S)-4-carboxy-4-[[2-[2-[2-[[2-[2-[2-[[(4S)-4-carboxy-4-(17-carboxyheptadecanoylamino)butanoyl]amino]ethoxy]ethoxy]acetyl]amino]ethoxy]ethoxy]acetyl]amino]butanoyl]amino]butanoyl]-[Leu^16,Lys^24,Leu^27,Ser^25]-Glucagon] (H-HSQGTFTSDYSKYLDLRRAQDFVK([γGlu-γGlu-AEEA-AEEA-γGlu-C18 diacid])WLLST-OH; N-terminus and C-terminus assumed) |  | 
 |  |  | CC(C)C[C@H](NC(=O)[C@H](CC(=O)O)NC(=O)[C@H](CC(C)C)NC(=O)[C@H](Cc1ccc(O)cc1)NC(=O)[C@H](CCCNC(=N)N)NC(=O)[C@H](CO)NC(=O)[C@H](Cc1ccc(O)cc1)NC(=O)[C@H](CC(=O)O)NC(=O)[C@H](CO)NC(=O)[C@@H](NC(=O)[C@H](Cc1ccccc1)NC(=O)[C@@H](NC(=O)CNC(=O)[C@H](CCC(N)=O)NC(=O)[C@H](CO)NC(=O)[C@@H](N)Cc1c[nH]cn1)[C@@H](C)O)[C@@H](C)O)C(=O)N[C@@H](CCCNC(=N)N)C(=O)N[C@@H](CCCNC(=N)N)C(=O)N[C@@H](C)C(=O)N[C@@H](CCC(N)=O)C(=O)N[C@@H](CC(=O)O)C(=O)N[C@@H](Cc1ccccc1)C(=O)N[C@H](C(=O)N[C@@H](CCCCNC(=O)CC[C@H](NC(=O)CC[C@H](NC(=O)COCCOCCNC(=O)COCCOCCNC(=O)CC[C@H](NC(=O)CCCCCCCCCCCCC(=O)O)C(=O)O)C(=O)O)C(=O)O)C(=O)N[C@@H](Cc1c[nH]c2ccccc12)C(=O)N[C@@H](CC(C)C)C(=O)N[C@@H](CC(C)C)C(=O)N[C@@H](CO)C(=O)N[C@H](C(=O)O)[C@@H](C)O)C(C)C [Example 24, N^ε24-[(4S)-4-carboxy-4-[[(4S)-4-carboxy-4-[[2-[2-[2-[[2-[2-[2-[[(4S)-4-carboxy-4-(13-carboxytridecanoylamino)butanoyl]amino]ethoxy]ethoxy]acetyl]amino]ethoxy]ethoxy]acetyl]amino]butanoyl]amino]butanoyl]-[Arg^12,Leu^16,Lys^24,Leu^27,Ser^28]-Glucagon] (H-HSQGTFTSDYSRYLDLRRAQDFVK([γGlu-γGlu-AEEA-AEEA-γGlu-C14 diacid])WLLST-OH) | 4.1 | 0.006
 |  |  | CC(C)C[C@H](NC(=O)[C@H](Cc1ccc(O)cc1)NC(=O)[C@H](CCCNC(=N)N)NC(=O)[C@H](CO)NC(=O)[C@H](Cc1ccc(O)cc1)NC(=O)[C@H](CC(=O)O)NC(=O)[C@H](CO)NC(=O)[C@@H](NC(=O)[C@H](Cc1ccccc1)NC(=O)[C@@H](NC(=O)CNC(=O)[C@H](CCC(N)=O)NC(=O)[C@H](CO)NC(=O)[C@@H](N)Cc1c[nH]cn1)[C@@H](C)O)[C@@H](C)O)C(=O)N[C@@H](CC(=O)O)C(=O)N[C@@H](C)C(=O)N[C@@H](CCCNC(=N)N)C(=O)N[C@@H](CCCNC(=N)N)C(=O)N[C@@H](C)C(=O)N[C@@H](CCC(N)=O)C(=O)N[C@@H](CC(=O)O)C(=O)N[C@@H](Cc1ccccc1)C(=O)N[C@H](C(=O)N[C@@H](CCCCNC(=O)CC[C@H](NC(=O)CC[C@H](NC(=O)COCCOCCNC(=O)COCCOCCNC(=O)CC[C@H](NC(=O)CCCCCCCCCCCCCCCCC(=O)O)C(=O)O)C(=O)O)C(=O)O)C(=O)N[C@@H](Cc1c[nH]c2ccccc12)C(=O)N[C@@H](CC(C)C)C(=O)N[C@@H](CC(C)C)C(=O)N[C@@H](CO)C(=O)N[C@H](C(=O)O)[C@@H](C)O)C(C)C [Example 16, N^ε24-[(4S)-4-carboxy-4-[[(4S)-4-carboxy-4-[[2-[2-[2-[[2-[2-[2-[[(4S)-4-carboxy-4-(17-carboxyheptadecanoylamino)butanoyl]amino]ethoxy]ethoxy]acetyl]amino]ethoxy]ethoxy]acetyl]amino]butanoyl]amino]butanoyl]-[Arg^12,Ala^16,Lys^24,Leu^27,Ser^28]-Glucagon] (H-HSQGTFTSDYSRYLDARRAQDFVK([γGlu-γGlu-AEEA-AEEA-γGlu-C18 diacid])WLLST-OH) | 86.6 | 0.158
 | 4.2 | 83.0 | CC(C)C[C@H](NC(=O)[C@H](Cc1c[nH]c2ccccc12)NC(=O)[C@H](CCCCNC(=O)CC[C@H](NC(=O)CC[C@H](NC(=O)COCCOCCNC(=O)COCCOCCNC(=O)CC[C@H](NC(=O)CCCCCCCCCCCCCCCCC(=O)O)C(=O)O)C(=O)O)C(=O)O)NC(=O)[C@@H](NC(=O)[C@H](Cc1ccccc1)NC(=O)[C@H](CCC(=O)O)NC(=O)[C@H](CCC(N)=O)NC(=O)[C@H](C)NC(=O)[C@H](CCCNC(=N)N)NC(=O)[C@H](CCCNC(=N)N)NC(=O)[C@@H](NC(=O)[C@H](CC(=O)O)NC(=O)[C@H](CC(C)C)NC(=O)[C@H](Cc1ccc(O)cc1)NC(=O)[C@H](CCCCN)NC(=O)[C@H](CO)NC(=O)[C@@H](NC(=O)[C@H](CC(=O)O)NC(=O)[C@H](CO)NC(=O)[C@@H](NC(=O)[C@H](Cc1ccccc1)NC(=O)[C@@H](NC(=O)CNC(=O)[C@H](CCC(N)=O)NC(=O)[C@H](CO)NC(=O)[C@@H](N)Cc1c[nH]cn1)[C@@H](C)O)[C@@H](C)O)C(C)C)[C@@H](C)O)C(C)C)C(=O)N[C@@H](CC(C)C)C(=O)N[C@@H](CO)C(=O)N[C@H](C(=O)O)[C@@H](C)O [Example 38, N^ε24-[(4S)-4-carboxy-4-[[(4S)-4-carboxy-4-[[2-[2-[2-[[2-[2-[2-[[(4S)-4-carboxy-4-(17-carboxyheptadecanoylamino)butanoyl]amino]ethoxy]ethoxy]acetyl]amino]ethoxy]ethoxy]acetyl]amino]butanoyl]amino]butanoyl]-[Val10,Thr16,Glu21,Lys24,Leu27,Ser28]-Glucagon] (H-HSQGTFTSDVSKYLDTRRAQEFVK([γGlu-γGlu-AEEA-AEEA-γGlu-C18 diacid])WLLST-OH) |  | 
